In ChEMBL document CHEMBL1201862, “PubChem BioAssay data set” (2004):
Activity calls are given as the source filed them.

What was measured:
Cytochrome P450 2C19 = Cytochrome P450 2C19 (Homo sapiens, UniProt P33261); experiment: Cytochrome panel assay with activity outcomes. Panel member name: p450-cyp2c19 Compounds with AC50 equal or less than 10 uM are considered active; format: functional
Cytochrome P450 2C9 = Cytochrome P450 2C9 (Homo sapiens, UniProt P11712)
[1] = Luminescence Cell-Based Dose Confirmation HTS to Identify Activators of 5'UTR Stem-Loop Driven Alpha-Synuclein mRNA Translation in H4 Neuroglioblastoma Cells. [Related pubchem assays: 1829 (Project Summary), 1814 (Primary HTS)]; format: functional
[2] = Luminescence Cell-Based Dose Response HTS to Identify Activators of Luciferase Translation or Activity in H4 […] Cells. [Related pubchem assays: 1829 (Project Summary), 1814 (Primary HTS)]; format: functional
BJ [3] = experiment: BJ-TERT fibroblast viability loss – cell-based, RAS-independent, luminescence, dose response (AID 1933); format: functional; conditions: Homo sapiens
H4 = experiment: Luminescence Cell-Based Dose Response HTS to Identify Activators of 5'UTR Stem-Loop Driven Prion Protein mRNA Translation in H4 Neuroglioblastoma Cells. [Related pubchem assays: 1829 (Project Summary), 1814 (Primary HTS)]; format: functional; conditions: Homo sapiens
BJ [4] = experiment: cells; format: functional, cell-based; conditions: Homo sapiens
BJ [5] = experiment: BJ-TERT-LT-ST fibroblast viability loss – cell-based, RAS-independent, luminescence, dose response (AID 1935); format: functional; conditions: Homo sapiens;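 note: BJ fibroblasts immortalized with TERT plus LT and ST oncogenes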
[6] = DRD fibroblast viability loss – cell-based, non-viral oncogenic, luminescence, dose response (AID 1934); format: functional; conditions: Homo sapiens
[7] = biological target: T1, Microphthalmia-associated transcription factor (Homo sapiens, UniProt O75030); experiment: reducers of TRPM1 reporter luminescence, concentration series – cell-based, SK-MEL-5, cherry-picked, set 3, MITF inhibitor project, dose response (AID 493073); format: functional;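 note: SK-MEL-5 melanoma cells with luciferase driven by the MITF target TRPM1 promoter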
T1 sequence (O75030 whole entry): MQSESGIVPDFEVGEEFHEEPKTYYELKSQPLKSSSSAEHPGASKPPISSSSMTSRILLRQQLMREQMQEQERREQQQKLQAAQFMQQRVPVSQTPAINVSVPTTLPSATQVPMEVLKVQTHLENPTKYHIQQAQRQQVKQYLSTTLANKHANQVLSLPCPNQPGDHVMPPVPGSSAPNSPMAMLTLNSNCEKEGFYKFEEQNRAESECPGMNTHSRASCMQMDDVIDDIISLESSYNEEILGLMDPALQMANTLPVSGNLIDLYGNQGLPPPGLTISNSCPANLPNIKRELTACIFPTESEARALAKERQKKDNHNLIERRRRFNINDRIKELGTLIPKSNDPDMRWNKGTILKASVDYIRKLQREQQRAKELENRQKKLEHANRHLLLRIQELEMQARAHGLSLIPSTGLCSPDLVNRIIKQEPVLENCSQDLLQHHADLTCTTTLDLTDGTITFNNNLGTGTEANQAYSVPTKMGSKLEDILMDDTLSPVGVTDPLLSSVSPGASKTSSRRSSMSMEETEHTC

Protein skinhead-1 = biological target: T2, Protein skinhead-1 (Caenorhabditis elegans, UniProt P34707); format: functional
T2 sequence (P34707 whole entry): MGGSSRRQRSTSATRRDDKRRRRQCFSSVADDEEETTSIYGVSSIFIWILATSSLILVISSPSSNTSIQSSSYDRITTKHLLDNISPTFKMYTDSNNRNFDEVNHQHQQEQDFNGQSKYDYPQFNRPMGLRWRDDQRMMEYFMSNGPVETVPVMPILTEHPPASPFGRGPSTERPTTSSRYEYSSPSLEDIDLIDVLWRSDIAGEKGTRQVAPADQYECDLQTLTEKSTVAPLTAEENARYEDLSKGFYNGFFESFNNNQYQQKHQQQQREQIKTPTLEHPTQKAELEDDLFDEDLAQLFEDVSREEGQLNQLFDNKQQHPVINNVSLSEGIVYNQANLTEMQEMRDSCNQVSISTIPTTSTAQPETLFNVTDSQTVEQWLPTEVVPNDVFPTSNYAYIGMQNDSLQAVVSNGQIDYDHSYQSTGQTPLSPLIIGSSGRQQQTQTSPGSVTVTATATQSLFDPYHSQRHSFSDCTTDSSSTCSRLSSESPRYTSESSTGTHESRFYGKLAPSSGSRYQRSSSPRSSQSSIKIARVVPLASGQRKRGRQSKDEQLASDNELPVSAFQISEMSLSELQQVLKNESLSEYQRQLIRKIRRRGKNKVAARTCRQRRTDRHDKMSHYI

[8] = biological target: Luciferin 4-monooxygenase (Photinus pyralis, UniProt P08659); experiment: inhibition of purified Photinus pyralis luciferase – biochemical, luminescence, dose response (AID 1891)
Luciferin 4-monooxygenase, sequence (P08659 whole entry): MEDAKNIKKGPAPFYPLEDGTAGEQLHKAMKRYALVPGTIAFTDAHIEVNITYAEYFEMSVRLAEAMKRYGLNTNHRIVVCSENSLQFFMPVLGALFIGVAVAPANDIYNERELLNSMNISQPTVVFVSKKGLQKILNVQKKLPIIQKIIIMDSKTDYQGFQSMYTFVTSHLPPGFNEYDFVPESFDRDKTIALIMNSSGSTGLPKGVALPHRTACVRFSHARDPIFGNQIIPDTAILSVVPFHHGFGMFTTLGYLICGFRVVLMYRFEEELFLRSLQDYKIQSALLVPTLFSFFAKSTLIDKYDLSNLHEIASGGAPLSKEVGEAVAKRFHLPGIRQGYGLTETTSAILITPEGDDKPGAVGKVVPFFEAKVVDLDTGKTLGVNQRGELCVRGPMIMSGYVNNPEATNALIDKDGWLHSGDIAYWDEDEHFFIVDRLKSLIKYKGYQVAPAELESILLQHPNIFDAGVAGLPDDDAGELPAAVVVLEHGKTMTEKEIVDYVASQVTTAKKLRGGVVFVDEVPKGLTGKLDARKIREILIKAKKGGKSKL

[9] = Luminescence Cell-Based Dose Confirmation HTS to Identify Inhibitors of Platelet Dense Granule Release. [Related pubchem assays: 1663 (Primary HTS), 1678 (Summary of Project)]; format: functional
[10] = biological target: T3, Heat shock factor protein 1 (Mus musculus, UniProt P38532); experiment: enhancement of HSF1-driven luciferase signal – cell-based, NIH3T3, luminescence, dose retest, confirmation (AID 435004); format: functional;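 note: stress induced by proteasome inhibitor MG132 added 30 min after compound; luciferase reporter driven by HSF1 response element in NIH3T3 cells; actives raise luminescence as potentiators of the MG132 stress response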
T3 sequence (P38532 whole entry): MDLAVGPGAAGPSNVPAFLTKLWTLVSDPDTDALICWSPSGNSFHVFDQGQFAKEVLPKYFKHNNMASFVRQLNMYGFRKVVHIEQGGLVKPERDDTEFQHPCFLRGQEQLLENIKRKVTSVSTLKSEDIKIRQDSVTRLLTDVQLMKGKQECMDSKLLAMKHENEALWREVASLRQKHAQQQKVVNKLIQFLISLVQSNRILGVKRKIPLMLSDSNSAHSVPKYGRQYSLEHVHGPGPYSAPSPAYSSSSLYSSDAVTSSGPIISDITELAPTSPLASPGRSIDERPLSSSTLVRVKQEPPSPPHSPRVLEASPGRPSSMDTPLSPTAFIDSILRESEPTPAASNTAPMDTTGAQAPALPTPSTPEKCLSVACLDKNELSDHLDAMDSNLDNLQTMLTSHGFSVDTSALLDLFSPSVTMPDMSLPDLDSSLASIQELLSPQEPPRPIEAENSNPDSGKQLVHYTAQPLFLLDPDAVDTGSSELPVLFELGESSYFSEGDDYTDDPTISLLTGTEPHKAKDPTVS

Genome polyprotein = Genome polyprotein (dengue virus type 2, UniProt P29990); experiment: flavivirus cap methylation enzyme inhibition – biochemical, confirmation dose response, primary screen (AID 588689); format: functional
Genome polyprotein, sequence (P29990 2492-3391 limits assumed): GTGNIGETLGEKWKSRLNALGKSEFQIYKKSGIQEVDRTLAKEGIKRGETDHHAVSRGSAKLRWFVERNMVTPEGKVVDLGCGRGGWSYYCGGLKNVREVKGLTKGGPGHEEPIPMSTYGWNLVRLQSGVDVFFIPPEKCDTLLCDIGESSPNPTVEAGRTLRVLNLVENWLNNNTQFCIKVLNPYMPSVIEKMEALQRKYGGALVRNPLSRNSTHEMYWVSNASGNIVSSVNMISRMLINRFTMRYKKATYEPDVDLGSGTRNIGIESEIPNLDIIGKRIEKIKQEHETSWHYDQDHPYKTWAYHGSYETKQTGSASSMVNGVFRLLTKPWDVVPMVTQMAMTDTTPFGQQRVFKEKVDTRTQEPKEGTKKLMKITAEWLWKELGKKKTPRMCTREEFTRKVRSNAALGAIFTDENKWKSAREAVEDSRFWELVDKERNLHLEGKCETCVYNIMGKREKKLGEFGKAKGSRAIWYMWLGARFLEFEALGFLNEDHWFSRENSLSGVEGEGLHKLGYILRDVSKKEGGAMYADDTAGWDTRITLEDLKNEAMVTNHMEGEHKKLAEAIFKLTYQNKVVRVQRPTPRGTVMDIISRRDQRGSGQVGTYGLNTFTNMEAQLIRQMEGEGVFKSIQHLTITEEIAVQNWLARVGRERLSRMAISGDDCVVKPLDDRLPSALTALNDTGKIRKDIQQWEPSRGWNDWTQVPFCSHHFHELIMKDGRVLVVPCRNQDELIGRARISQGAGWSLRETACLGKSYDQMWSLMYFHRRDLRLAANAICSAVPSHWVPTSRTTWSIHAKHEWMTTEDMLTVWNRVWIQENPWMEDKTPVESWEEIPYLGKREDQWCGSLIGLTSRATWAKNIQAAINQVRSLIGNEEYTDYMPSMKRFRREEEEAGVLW

Cytochrome P450 1A2 = biological target: T4, Cytochrome P450 1A2 (Homo sapiens, UniProt P05177);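 note: PubChem cytochrome P450 panel assay, CYP1A2 panel member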
T4 sequence (P05177 whole entry): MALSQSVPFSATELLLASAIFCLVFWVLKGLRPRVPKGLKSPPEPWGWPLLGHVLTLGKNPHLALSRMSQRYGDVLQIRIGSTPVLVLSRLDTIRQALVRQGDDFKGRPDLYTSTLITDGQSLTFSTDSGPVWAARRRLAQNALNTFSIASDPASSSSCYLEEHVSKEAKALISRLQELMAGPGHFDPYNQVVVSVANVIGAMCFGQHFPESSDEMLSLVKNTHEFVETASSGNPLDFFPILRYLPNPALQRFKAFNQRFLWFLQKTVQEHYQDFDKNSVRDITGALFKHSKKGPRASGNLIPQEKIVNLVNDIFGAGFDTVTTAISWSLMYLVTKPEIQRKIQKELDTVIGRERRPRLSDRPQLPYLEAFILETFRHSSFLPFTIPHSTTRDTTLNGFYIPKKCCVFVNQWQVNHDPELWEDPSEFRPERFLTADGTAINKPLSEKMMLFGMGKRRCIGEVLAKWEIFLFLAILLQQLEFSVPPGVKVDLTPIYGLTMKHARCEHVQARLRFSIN

Tumor necrosis factor = Tumor necrosis factor (Homo sapiens, UniProt P01375); experiment: analog potency on TNFa NF-kB signaling – cell-based, revised, SAR follow-up (AID 2337); format: functional
Tumor necrosis factor, sequence (P01375 whole entry, the tested form may be a part): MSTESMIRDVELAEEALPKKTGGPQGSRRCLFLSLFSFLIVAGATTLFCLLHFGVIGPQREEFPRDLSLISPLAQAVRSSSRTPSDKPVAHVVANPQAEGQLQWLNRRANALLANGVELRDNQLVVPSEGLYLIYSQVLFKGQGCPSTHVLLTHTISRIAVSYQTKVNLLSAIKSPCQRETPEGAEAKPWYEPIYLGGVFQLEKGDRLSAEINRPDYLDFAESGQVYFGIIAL

[11] = biological target: T5, Nucleotide-binding oligomerization domain-containing protein 1 (Homo sapiens, UniProt Q9Y239); experiment: blockers of NOD1 pathway activity – revised, SAR follow-up (AID 2333); format: functional
T5 sequence (Q9Y239 whole entry): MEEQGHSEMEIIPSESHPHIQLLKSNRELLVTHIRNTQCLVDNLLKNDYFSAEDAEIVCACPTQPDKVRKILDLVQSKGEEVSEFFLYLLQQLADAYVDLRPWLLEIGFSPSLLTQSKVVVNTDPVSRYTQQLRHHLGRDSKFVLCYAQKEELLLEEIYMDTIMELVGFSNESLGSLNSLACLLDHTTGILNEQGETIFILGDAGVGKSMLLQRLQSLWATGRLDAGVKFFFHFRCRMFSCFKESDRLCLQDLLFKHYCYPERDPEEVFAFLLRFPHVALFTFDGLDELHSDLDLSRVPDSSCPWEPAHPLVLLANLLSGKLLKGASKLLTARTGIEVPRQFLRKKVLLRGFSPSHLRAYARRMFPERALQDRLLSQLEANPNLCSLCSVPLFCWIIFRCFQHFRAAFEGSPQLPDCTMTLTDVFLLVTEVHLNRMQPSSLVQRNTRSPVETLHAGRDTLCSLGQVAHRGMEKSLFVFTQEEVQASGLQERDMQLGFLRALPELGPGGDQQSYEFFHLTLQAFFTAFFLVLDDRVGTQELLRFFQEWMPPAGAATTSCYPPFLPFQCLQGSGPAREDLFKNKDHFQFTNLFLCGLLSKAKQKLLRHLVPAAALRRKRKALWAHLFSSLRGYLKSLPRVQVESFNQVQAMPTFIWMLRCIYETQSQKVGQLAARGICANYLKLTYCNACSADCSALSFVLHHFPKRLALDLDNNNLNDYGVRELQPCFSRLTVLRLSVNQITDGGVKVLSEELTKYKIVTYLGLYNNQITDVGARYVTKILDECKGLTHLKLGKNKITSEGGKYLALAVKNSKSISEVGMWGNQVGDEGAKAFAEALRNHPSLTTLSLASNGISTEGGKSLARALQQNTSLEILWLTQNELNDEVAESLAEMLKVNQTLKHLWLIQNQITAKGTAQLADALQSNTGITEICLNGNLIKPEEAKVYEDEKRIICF

HEK293 = experiment: cells; conditions: Homo sapiens;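 note: cells exposed to compound for 14 hours overnight before viability readout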
[12] = Luminescence Cell-Based Dose Retest to Confirm Inhibitors of Cancer Stem Cells. [Related pubchem assays (depositor defined):AID2717, AID2721]; format: functional; conditions: Homo sapiens
Cytochrome P450 3A4 = Cytochrome P450 3A4 (Homo sapiens, UniProt P08684);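 note: CYP3A4 tested as one member of a cytochrome P450 panel screen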
Cytochrome P450 3A4, sequence (P08684 whole entry): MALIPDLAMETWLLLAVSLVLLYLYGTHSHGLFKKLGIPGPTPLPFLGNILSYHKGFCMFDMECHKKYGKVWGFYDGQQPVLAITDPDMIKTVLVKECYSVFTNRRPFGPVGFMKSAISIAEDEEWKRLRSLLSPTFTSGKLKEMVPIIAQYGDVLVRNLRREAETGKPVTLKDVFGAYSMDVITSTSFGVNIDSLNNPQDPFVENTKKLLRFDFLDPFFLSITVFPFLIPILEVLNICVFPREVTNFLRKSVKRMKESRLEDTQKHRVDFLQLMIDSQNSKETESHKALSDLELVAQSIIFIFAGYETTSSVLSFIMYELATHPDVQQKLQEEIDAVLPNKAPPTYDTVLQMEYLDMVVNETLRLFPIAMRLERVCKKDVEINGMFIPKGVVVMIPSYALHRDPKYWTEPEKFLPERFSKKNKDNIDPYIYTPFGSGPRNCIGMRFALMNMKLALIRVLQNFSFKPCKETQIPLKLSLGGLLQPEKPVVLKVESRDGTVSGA

Cytochrome P450 2C9, sequence (P11712 whole entry): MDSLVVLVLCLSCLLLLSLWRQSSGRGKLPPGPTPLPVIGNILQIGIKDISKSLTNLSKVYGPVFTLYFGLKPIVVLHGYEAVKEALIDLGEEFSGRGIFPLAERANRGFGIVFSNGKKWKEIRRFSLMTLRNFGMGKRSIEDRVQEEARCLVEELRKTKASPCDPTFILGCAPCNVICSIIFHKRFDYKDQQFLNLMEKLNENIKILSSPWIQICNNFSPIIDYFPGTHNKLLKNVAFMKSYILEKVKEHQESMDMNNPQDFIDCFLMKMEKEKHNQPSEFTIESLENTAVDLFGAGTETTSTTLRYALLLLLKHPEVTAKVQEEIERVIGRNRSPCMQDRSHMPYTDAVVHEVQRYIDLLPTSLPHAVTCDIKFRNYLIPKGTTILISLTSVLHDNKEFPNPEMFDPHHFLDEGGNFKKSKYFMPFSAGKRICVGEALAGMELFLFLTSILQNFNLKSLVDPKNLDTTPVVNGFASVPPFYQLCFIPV
Cytochrome P450 2C19, sequence (P33261 whole entry): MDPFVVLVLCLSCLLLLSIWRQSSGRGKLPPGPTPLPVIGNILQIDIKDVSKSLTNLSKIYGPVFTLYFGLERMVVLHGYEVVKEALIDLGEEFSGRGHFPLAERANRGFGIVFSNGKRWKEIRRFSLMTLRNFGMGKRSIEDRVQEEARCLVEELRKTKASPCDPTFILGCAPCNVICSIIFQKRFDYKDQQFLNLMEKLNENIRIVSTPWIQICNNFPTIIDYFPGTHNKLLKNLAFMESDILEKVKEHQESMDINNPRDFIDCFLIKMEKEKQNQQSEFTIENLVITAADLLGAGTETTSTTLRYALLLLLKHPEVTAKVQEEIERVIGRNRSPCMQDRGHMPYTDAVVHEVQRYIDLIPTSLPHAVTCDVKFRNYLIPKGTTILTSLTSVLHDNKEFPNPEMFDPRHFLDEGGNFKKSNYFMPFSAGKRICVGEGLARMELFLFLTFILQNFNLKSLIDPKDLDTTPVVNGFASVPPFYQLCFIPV

Cc1cc(C(=O)O)c(O)nc1C
AC50 (Cytochrome P450 2C19): inconclusive
AC50 (Cytochrome P450 2C9): inconclusive

COc1cc2c(cc1OC)C(c1ccccc1)N(C(=O)CCl)CC2 (stereo not given)
EC50 [1]: > 120 µM (not active)
EC50 [2]: > 120 µM (not active)
EC50 (BJ [3]): 5.08 µM (inconclusive)
EC50 (H4): > 120 µM (not active)
EC50 (BJ [4]): 7.81 µM (inconclusive)
EC50 (BJ [5]): 4.74 µM (active)
EC50 [6]: 8.09 µM (active)
AC50 [7]: 5.36 µM (active)
IC50 (Protein skinhead-1): > 100 µM (inactive)

CC1(C)CC(=O)C=C(NC2=CC3OC(c4ccccc4)OCC3OC2=O)C1 (stereo not given)
EC50 [8]: > 112 µM (not active)
EC50 [9]: 14.8 µM (active)
EC50 [10]: 6.65 µM (inconclusive)
AC50 [7]: 7.71 µM (active)
IC50 (Genome polyprotein): > 100 µM (active)

COc1ccc(OC)c2nc(O)c(CCNC(=O)C3CCCCC3)cc12
AC50 (Cytochrome P450 1A2): 20 µM (inconclusive)
AC50 (Cytochrome P450 2C9): inconclusive

CSc1ccc(NC(=O)c2ccc(CN3CCc4ccccc43)cc2)cc1
IC50 (Tumor necrosis factor): > 20 µM (inactive)
IC50 [11]: > 20 µM (inactive)
IC50 (HEK293): > 20 µM (inactive)

N#Cc1cccc(NC(=O)CSc2nc3scc(-c4ccccc4)c3c(=O)[nH]2)c1
IC50 (Tumor necrosis factor): > 20 µM (inactive)
IC50 [11]: > 20 µM (inactive)
IC50 (HEK293): > 20 µM (inactive)

COc1cccc(/C=N/NC(=O)CSc2nnc(C)n2-c2ccccc2)c1O
AC50 [12]: 11.9 µM (active)
AC50 (Cytochrome P450 2C19; read-out: AC50): 31.6 µM (inconclusive)
AC50 (Cytochrome P450 1A2): 35.5 µM (inconclusive)
AC50 (Cytochrome P450 3A4): 4.47 µM (inconclusive)
AC50 (Cytochrome P450 2C9): inconclusive

NS(=O)(=O)c1cc(Cl)c(Cl)c(S(N)(=O)=O)c1 [DICHLORPHENAMIDE]
AC50 (Cytochrome P450 2C9): inconclusive
